Assay [1] relates to collagen types I, II and IV. In words: SDS-PAGE staining by heat activated fluorescent CMP, collagen types. The format is binding, rat (I), bovine (II), mouse (IV). The following applies: 6 μM, 2 μg protein per lane. An excerpt:
Acid soluble rat-tail type I collagen, bovine type II collagen, and mouse type IV collagen were purchased from BD Bioscience (San Jose, Calif.). Complement component C1q from human serum, fibronectin from bovine plasma, and laminin from Engelbreth-Holm-Swarm murine sarcoma basement membrane were purchased from Sigma-Aldrich. ProMMP-1, and p-aminophenylmercuric acetate were acquired from EMD millipore. Human umbilical vein endothelial cells (HUVECs) and EGM-2 cell growth media were obtained from Lonza (Walkersville, Md.). Precast NuPAGE® Novex 4-12% Bis-Tris Gel (1.0 mm, 12 well), Novex® Sharp unstained protein standard, and SDS-PAGE running buffer, sample buffer, and other SDS-PAGE reagents were purchased from Life Technologies.
SDS-PAGE staining and imaging. Proteins were resolved on NuPAGE® Novex 4-12% bis-tris gels under denaturating conditions using an XCell SureLock™ Mini-Cell electrophoresis system (Life Technologies). NuPAGE® MOPS SDS running buffer containing 50 mM MOPS, 50 mM Tris Base, 0.1% SDS, and 1 mM EDTA (pH 7.7) was used. Protein samples were heated to 85° C. in NuPAGE® LDS sample denaturing buffer for 10 min before the gel loading. Unless specified otherwise, 2 μg of protein was used for each lane. The gels were run at 200 V for 50-60 min. Reducing conditions were used only for gels carrying type IV collagen, HUVECs lysate, and C1q, for which NuPAGE® reducing agent was mixed with the protein samples, and 500 μL of NuPAGE® antioxidant was added to the cathode buffer before loading. After electrophoresis, the gels were washed by deionized water briefly three times to remove the remaining SDS. […] The fluorescence intensities of the protein bands were quantified using GE ImageQuant™ TL software. After fluorescence imaging, all gels were further stained with coomassie brilliant blue (CB) G-250 (Bio-Rad) for 2-3 hr followed by washing, and imaging under white light illumination using a Gel Doc EQ system (BioRad).

Assay [2] has as its system collagens in fixed tissue sections (skin, cornea, bone). In words: Immunohistochemistry of fixed tissue sections with UV-activated caged CMP. The arrangement: species or system mouse. The following applies: UV-activated on tissue. An excerpt: For immunohistochemical staining, anti-collagen I antibody was purchased from Abcam (ab292, Cambridge, Mass.); bovine serum albumin (BSA), goat serum, and Triton X-100 were purchased from Sigma-Aldrich; DAPI was obtained from Roche Applied Science (Indianapolis, Ind.); Alexa Fluor® 594 F(ab′)2 fragment of goat anti-rabbit IgG and Prolong® Gold antifade reagent were purchased from Life Technologies. The skin and cornea tissues were harvested from a 23 month-old wild-type C57BL/6 mouse. The tissues were fixed with 4% paraformaldehyde in PBS solution (pH 7.4) for 1 hour and cryopreserved in Tissue-Tek O.C.T. medium (Sakura Finetek, Torrance, Calif.). Cryosections of 8 μm thickness were obtained and mounted onto charged glass slides. Paraffin embedded mouse bone sections were a kind gift from Dr. Catherine Foss and Dr. Collin Torok at Johns Hopkins University School of Medicine. The leg containing the tibia bone was harvested from a 12-week-old female athymic nu/nu mouse. The muscle tissues were manually trimmed, and the bone was fixed in 10% neutral-buffered formalin at room temperature overnight. The bone was demineralized in Decal Stat solution (Decal Chemical, Suffern, N.Y.) for 3 hr at room temperature, embedded in paraffin and sectioned to 4 μm at Tissue Microarray Facility of Johns Hopkins University. The formalin-fixed normal and fibrotic rat livers were a kind gift from Jie Yan and Yuzhan Kang at National University of Singapore. The tissues were sectioned to 10 μm thickness on glass slides and stained by Masson trichrome by the Reference Histology Laboratory, Johns Hopkins Medical Institutions.
Immunohistochemistry. Frozen fixed tissue slides were allowed to equilibrate to room temperature and dried under air flow. The tissue sections were permeabilized by cold methanol at −20° C. for 10 min, and incubated in 1×PBS solution. The paraffin embedded bone sections were de-paraffinized by two cycles of 5 min xylene wash, two cycles of 5 min 100% ethanol wash, and two cycles of 5 min 95% ethanol wash followed by soaking in 1×PBS solutions. […]

In the case of “CF-GGG-PGOGPGPOPOGOGOPPGOOPGGOOPPG [CF^SG9P9O9, reference compound]”, the “staining of collagen bands” value in assay [1] was “virtually no binding affinity to the collagen bands”; in assay [1] (listed as CFSG9P9O9), “revealed no collagen bands”. Besides, in assay [2], the “staining of fixed mouse skin and cornea sections” value is reported as “no discernible binding”.

Turning to CF-GGG-(GPO)9 [CF(GPO)9], the “staining of collagen bands” value in assay [1] was “binds to collagen types I, II and IV”. The “staining of fixed mouse skin and cornea sections” value in assay [2] is listed as “effectively stained”. Besides, the “staining of demineralized, fixed, paraffin embedded mouse tibia bone sections” value in assay [2] (data not shown) is “strong”.
